Results on three compounds are retold here after patent publication US4353986A, “Process for producing antibiotic nanaomycin E” (priority 1978, dated 1982).

In brackets after ≈: the same amount, converted by molar mass.

Data set [1] in a line: acute toxicity (LD50) in mice. The conditions noted are these: mouse, in vivo, iv; interaneveously administered to mice. The text has this: (§1) Thus, nanaomycin E is of interest as an antibacterial and therapeutic agent for humans and animals.
Data set [2] relates to Gram-positive bacteria, Trichophyton and Mycoplasma. Particulars: cited from earlier work.
The test system of a further data set is Trichophyton schoenleini. Nature of the data set: antifungal spectrum, MIC by agar dilution. Type of data set: cell-based. Particulars: potato-agar pH 6.4, 27° C., 70 hours. On the technique in general: In agar dilution the substance is mixed into plates at graded concentrations.
The subject of data set [3] is Pseudomonas aeruginosa P 3. Nature of the data set: antibacterial spectrum, MIC by agar dilution. It is filed as cell-based. The conditions noted are these: P3, nutrient agar pH 7.0, 37° C., 20 hours.
The test system of data set [4] is Mycobacterium smegmatis ATCC 607. Description: antibacterial spectrum, MIC by agar dilution. Type of data set: cell-based. Particulars: Mycolicibacterium smegmatis, ATCC607, nutrient agar pH 7.0, 37° C., 20 hours.
Another data set deals with Candida albicans. Description: antifungal spectrum, MIC by agar dilution. Type of data set: cell-based. The conditions noted are these: potato-agar pH 6.4, 27° C., 70 hours.
The next data set has as its system Shigella sonnei E 33. Description: antibacterial spectrum, MIC by agar dilution. It is filed as cell-based. The conditions noted are these: E33, nutrient agar pH 7.0, 37° C., 20 hours. The method, then:
(§2) The antibacterial and antifungal spectrum of nanaomycin E is shown in Table 1, in which the minimum inhibitory concentration (MIC) is determined by the agar dilution method. In the case of bacteria, the determination was made after culturing at 37° C. for 20 hours by using a nutrient agar having a pH of 7.0 and, in the cases of fungi, the determination was made after culturing at 27° C. for 70 hours by using a potato-agar having a pH of 6.4.

The next data set deals with Bacillus cereus T. Nature of the data set: antibacterial spectrum, MIC by agar dilution. It is filed as cell-based. Particulars: nutrient agar pH 7.0, 37° C., 20 hours.
Data set [5] has as its system Staphylococcus aureus FDA 209P. Nature of the data set: antibacterial spectrum, MIC by agar dilution. Particulars: FDA209P, nutrient agar pH 7.0, 37° C., 20 hours. Type of data set: cell-based.
Data set [6] relates to Staphylococcus aureus FS 1277 (penicillin-resistant). Description: antibacterial spectrum, MIC by agar dilution. Particulars: nutrient agar pH 7.0, 37° C., 20 hours. It is filed as cell-based.
A further data set relates to Trichophyton rubrum. Nature of the data set: antifungal spectrum, MIC by agar dilution. It is filed as cell-based. The conditions noted are these: potato-agar pH 6.4, 27° C., 70 hours.
The next data set deals with Microsporum gypseum. Nature of the data set: antifungal spectrum, MIC by agar dilution. The conditions noted are these: Nannizzia gypsea, potato-agar pH 6.4, 27° C., 70 hours. It is filed as cell-based.
The test system of data set [7] is Aspergillus niger ATCC 6275. Description: antifungal spectrum, MIC by agar dilution. Type of data set: cell-based. The conditions noted are these: ATCC6275, potato-agar pH 6.4, 27° C., 70 hours.
The next data set deals with Piricularia oryzae. Description: microbe, parasite or virus in culture. It is filed as cell-based. The conditions noted are these: pH 6.4; 27° C., 70 hours.
The next data set relates to Saccharomyces sake. Nature of the data set: antifungal spectrum, MIC by agar dilution. It is filed as cell-based. The conditions noted are these: potato-agar pH 6.4, 27° C., 70 hours.
A further data set has as its system Escherichia coli NIHJ. Nature of the data set: antibacterial spectrum, MIC by agar dilution. It is filed as cell-based. The conditions noted are these: nutrient agar pH 7.0, 37° C., 20 hours.
In data set [8] the test system is Bacillus subtilis PCI 219. Nature of the data set: antibacterial spectrum, MIC by agar dilution. It is filed as cell-based. The conditions noted are these: PCI219, nutrient agar pH 7.0, 37° C., 20 hours.
Data set [9] has as its system Proteus vulgaris IFO 3167. Description: antibacterial spectrum, MIC by agar dilution. It is filed as cell-based. Particulars: IFO3167, nutrient agar pH 7.0, 37° C., 20 hours.
In data set [10] the test system is Trichophyton interdigitale. Nature of the data set: antifungal spectrum, MIC by agar dilution. It is filed as cell-based. The conditions noted are these: potato-agar pH 6.4, 27° C., 70 hours.
Data set [11] deals with Staphylococcus aureus KB 64 (erythromycin- and tetracycline-resistant). Description: antibacterial spectrum, MIC by agar dilution. It is filed as cell-based. The conditions noted are these: nutrient agar pH 7.0, 37° C., 20 hours.
Data set [12] has as its system Trichophyton mentagrophytes. Nature of the data set: antifungal spectrum, MIC by agar dilution. Type of data set: cell-based. Particulars: potato-agar pH 6.4, 27° C., 70 hours.
Data set [13] concerns Gram-positive bacteria and fungi. Description: activity against Gram-positive bacteria and fungi compared with nanaomycin A and D. Type of data set: cell-based. The method, then: as §2, §1
The next data set deals with Nocardia asteroides. Nature of the data set: antibacterial spectrum, MIC by agar dilution. Particulars: nutrient agar pH 7.0, 37° C., 20 hours. Type of data set: cell-based.
A short description of a further data set: solubility. Type of data set: physicochemical.
Another data set has as its system Sarcina lutea PCI 1001. Description: antibacterial spectrum, MIC by agar dilution. It is filed as cell-based. Particulars: Micrococcus luteus, PCI1001, nutrient agar pH 7.0, 37° C., 20 hours.
Another data set has as its system Salmonella typhimurium. Description: antibacterial spectrum, MIC by agar dilution. Type of data set: cell-based. The conditions noted are these: Salmonella enterica, nutrient agar pH 7.0, 37° C., 20 hours.

`CC1OC(CC(=O)O)CC2=C1C(=O)c1c(O)cccc1C2=O` (stereo not drawn) [nanaomycin A]: the LD50 in [1] was determined as 46 mg/kg. Besides, the antibiotic activity entry in data set [2] (against Gram-positive bacteria, Trichophyton and Mycoplasma, known compound) was “having antibiotic activity against Gram-positive bacteria, Trichophyton and Mycoplasma”. For the same compound, the “activity against Gram-positive bacteria, Trichophyton and Mycoplasma” value in data set [2] (among nanaomycin-type compounds) is reported as “exhibits the strongest activity”.
With `CC1OC2CC(=O)OC2C2=C1C(=O)c1c(O)cccc1C2=O` (stereo not drawn) [nanaomycin D], the LD50 in data set [1] was 1.5 mg/kg.
Take `CC1OC(CC(=O)O)CC23OC12C(=O)c1c(O)cccc1C3=O` (stereo not drawn) [nanaomycin E]: the MIC in the data set with Trichophyton schoenleini is 50 µg/mL (≈ 157 µM); in data set [3] it was more than 100 µg/mL; in data set [4], more than 100 µg/mL; against Candida albicans, more than 100 µg/mL; with Shigella sonnei E 33, more than 100 µg/mL; against Bacillus cereus T it was 12.5 µg/mL (≈ 39.3 µM). Besides, the MIC in data set [5] was 25 µg/mL (≈ 78.5 µM); in data set [6], 25 µg/mL (≈ 78.5 µM); with Trichophyton rubrum, 50 µg/mL (≈ 157 µM); in the data set on Microsporum gypseum it was 100 µg/mL (≈ 314 µM); in data set [7], more than 100 µg/mL; against Piricularia oryzae, 100 µg/mL (≈ 314 µM). Besides, the MIC against Saccharomyces sake was more than 100 µg/mL; against Escherichia coli NIHJ it was 50 µg/mL (≈ 157 µM); in data set [8] it was 12.5 µg/mL (≈ 39.3 µM); in data set [9], 25 µg/mL (≈ 78.5 µM); in data set [10], 50 µg/mL (≈ 157 µM); in data set [11], 25 µg/mL (≈ 78.5 µM). In addition, the MIC in [12] is 50 µg/mL (≈ 157 µM); with Nocardia asteroides, more than 100 µg/mL; with Sarcina lutea PCI 1001 it was 25 µg/mL (≈ 78.5 µM); in the data set on Salmonella typhimurium, more than 100 µg/mL. The “activity against Gram-positive bacteria and fungi relative to nanaomycin A and D” value in [13] is “approximately equal to or somewhat weaker than the activities of nanaomycin A and D”. In data set [1], this compound displayed an LD50 of 60 mg/kg. The Solubility entry is recorded as “Easily soluble” in the data set “solubility” (in methanol, ethanol, ethyl acetate, butyl acetate etc.) and “Insoluble” in “solubility” (in n-hexane, petroleum ether etc.).

The term LD50 denotes the dose at which mortality reaches 50%. The low end stands for greater toxicity, the high end for lower toxicity.
